# According to US11666608B2 (priority 2020, dated 2023):
# Test system: neutrophils isolated from peripheral blood
# Assay: Neutrophil activation by E. coli EVs, neutrophil elastase secretion (ELISA)
# Type: cell-based
# Conditions: human neutrophils treated with E. coli EVs and test substance 24 hours, FIG. 8
# Procedure: Specifically, 10 mL of blood was collected in a tube containing an ACD solution, the blood was carefully added over 20 mL of Lymphoprep and centrifuged. After centrifugation, a red blood layer was collected and mixed with 12 mL of dextran, followed by standing at room temperature for 45 minutes. After layer separation, 40 mL of 1×HBSS was added to the supernatant and centrifuged again, and red blood cells were removed with autoclaved Millipore water, and then neutrophils were isolated using a neutrophil isolation kit (MACS). […] As a positive control drug, dexamethasone (Dex) was treated.
compound,measurement,value
C[C@@H]1C[C@H]2[C@@H]3CCC4=CC(=O)C=C[C@]4(C)[C@@]3(F)[C@@H](O)C[C@]2(C)[C@@]1(O)C(=O)CO [dexamethasone],"secretion of NE (neutrophil elastase), neutrophil activation indicator",did not inhibit
